{"source": "patent US8835660B2", "about": "“Method for extracting organic compounds from aqueous mixtures” (The Regents of the University of California, priority 2010, dated 2014)", "key": {"[1]": {"experiment": "Distribution of ethanol and isobutanol between water and DEB phases", "assay_type": "physicochemical", "conditions": "for Distribution coefficient of isobutanol (DEB/water) / Amount of iBuOH in water (final) / Amount of iBuOH in DEB (final) / Amount of EtOH in water (final) / D = conc. of EtOH in DEB/conc. of EtOH in water / Amount of EtOH in DEB (final): single extraction; for Amount of iBuOH in DEB (final) / Amount of EtOH in DEB (final): mass balance", "experimental": "The amount of ethanol and isobutanol in water phase was measured using HPLC (see above for details). The concentrations of ethanol taken were: 8, 6, 3, 2, 1 and 0.5 wt %.\nDistribution coefficient is reported on the basis of HPLC results of aqueous phase and that of mass balance of both the phases. Experiments are currently underway to determine the amount of ethanol, iso butanol in DEB phase. Gas chromatography will be used to quantify the amount of ethanol and isobutanol present in the DEB phase. Water measurements will be done using a Karl Fischer apparatus.\nHere also, distribution coefficient is reported on the basis of HPLC results of aqueous phase and that of mass balance of both the phase."}, "[2]": {"experiment": "Distribution of hydroxymethylfurfural and furfural between water and DEB phases", "assay_type": "physicochemical", "conditions": "25° C., single extraction; for Amount of HMF in DEB phase (g) (final in DEB phase) / Amount of furfural in DEB phase (g) (final in DEB phase): mass balance", "experimental": "The amounts of hydroxymethylfurfural and furfural in water phase were measured\nusing HPLC (see above for details). […] Distribution coefficient is reported on the basis of HPLC results of aqueous phase and that of mass balance of both the phases. The amount of hydroxymethylfurfural in DEB phase may be quantified using gas chromatography. Water measurements of the separated DEB phase containing hydroxymethylfurfural may be carried out using a Karl Fischer apparatus.\nDistribution coefficient is reported on the basis of HPLC results of aqueous phase and that of mass balance of both the phases. The amount of furfural in DEB phase may be quantified using gas chromatography. Water measurements of the separated DEB phase containing furfural may be carried out using a Karl Fischer apparatus."}, "[3]": {"conditions": "cloud-point"}, "[4]": {"conditions": "for AcOH in DEB / AcOH in water (final in DEB) / D = AcOH in DEB/AcOH in water / Water in DEB: 25° C., single extraction"}, "[5]": {"conditions": "4.76 g DEB, 0.26 g iBuOH initially in 4.74 g water"}, "[6]": {"conditions": "4.88 g DEB, 0.13 g iBuOH initially in 4.89 g water"}, "[7]": {"conditions": "4.93 g DEB, 0.071 g iBuOH initially in 4.92 g water"}, "[8]": {"conditions": "5.08 g DEB, 0.028 g iBuOH initially in 5.03 g water"}, "[9]": {"conditions": "5.01 g DEB, 0.0132 g HMF initially in 5.01 g water"}, "[10]": {"conditions": "5.01 g DEB, 0.0512 g HMF initially in 5.11 g water"}, "[11]": {"conditions": "5.02 g DEB, 0.0251 g HMF initially in 5.03 g water"}, "[12]": {"conditions": "4.91 g DEB, 0.33 g AcOH initially in 4.1 g water"}, "[13]": {"conditions": "5.8 g DEB, 0.17 g AcOH initially in 4.2 g water"}, "[14]": {"conditions": "6.5 g DEB, 0.07 g AcOH initially in 4.3 g water"}, "[15]": {"conditions": "4.98 g DEB, 0.0491 g furfural initially in 5.01 g water"}, "[16]": {"conditions": "5.02 g DEB, 0.0242 g furfural initially in 4.98 g water"}, "[17]": {"conditions": "5.11 g DEB, 0.0141 g furfural initially in 5.05 g water"}, "[18]": {"conditions": "4.63 g DEB, 0.99 g EtOH initially in 4.62 g water"}, "[19]": {"conditions": "4.71 g DEB, 0.31 g EtOH initially in 4.70 g water"}, "[20]": {"conditions": "4.85 g DEB, 0.16 g EtOH initially in 4.86 g water"}, "[21]": {"conditions": "4.92 g DEB, 0.11 g EtOH initially in 4.89 g water"}, "[22]": {"conditions": "4.97 g DEB, 0.06 g EtOH initially in 4.98 g water"}, "[23]": {"conditions": "5.02 g DEB, 0.03 g EtOH initially in 5.03 g water"}}, "note": "Like-named read-outs stand apart in the source and are kept apart here."}
{"compound": "CC(C)CO", "note": "[isobutanol]", "values": [{"measurement": "measured distribution coefficients", "setting": "[1]; 5, 3, 2, and 1 wt % of isobutanol", "result": "2.5-3.5"}, {"measurement": "concentration in DEB relative to concentration in water at equilibrium", "setting": "[1]; DEB and water phases in equilibrium", "result": "2-3 times"}, {"measurement": "Distribution coefficient of isobutanol (DEB/water)", "setting": "[1]; [5]", "result": 2.71}, {"measurement": "Distribution coefficient of isobutanol (DEB/water)", "setting": "[1]; [6]", "result": 3.33}, {"measurement": "Distribution coefficient of isobutanol (DEB/water)", "setting": "[1]; [7]", "result": 2.72}, {"measurement": "Distribution coefficient of isobutanol (DEB/water)", "setting": "[1]; [8]", "result": 3.59}, {"measurement": "Amount of iBuOH in water (final)", "setting": "[1]; [5]", "result": 0.07, "unit": "grams"}, {"measurement": "Amount of iBuOH in DEB (final)", "setting": "[1]; [5]", "result": 0.19, "unit": "grams"}, {"measurement": "Amount of iBuOH in water (final)", "setting": "[1]; [6]", "result": 0.03, "unit": "grams"}, {"measurement": "Amount of iBuOH in DEB (final)", "setting": "[1]; [6]", "result": 0.10, "unit": "grams"}, {"measurement": "Amount of iBuOH in water (final)", "setting": "[1]; [7]", "result": 0.018, "unit": "grams"}, {"measurement": "Amount of iBuOH in DEB (final)", "setting": "[1]; [7]", "result": 0.053, "unit": "grams"}, {"measurement": "Amount of iBuOH in water (final)", "setting": "[1]; [8]", "result": 0.0061, "unit": "grams"}, {"measurement": "Amount of iBuOH in DEB (final)", "setting": "[1]; [8]", "result": 0.0219, "unit": "grams"}]}
{"compound": "O=Cc1ccc(CO)o1", "note": "[hydroxymethylfurfural]", "values": [{"measurement": "Amount of HMF in water phase (g) (final)", "setting": "[2]; [9]", "result": 0.0083, "unit": "g"}, {"measurement": "D = conc. of HMF in DEB/conc. of HMF in water", "setting": "[2]; [9]", "result": 0.61}, {"measurement": "Amount of HMF in DEB phase (g) (final in DEB phase)", "setting": "[2]; [9]", "result": 0.0050, "unit": "g"}, {"measurement": "Amount of HMF in water phase (g) (final)", "setting": "[2]; [10]", "result": 0.0321, "unit": "g"}, {"measurement": "D = conc. of HMF in DEB/conc. of HMF in water", "setting": "[2]; [10]", "result": 0.59}, {"measurement": "Amount of HMF in DEB phase (g) (final in DEB phase)", "setting": "[2]; [10]", "result": 0.0191, "unit": "g"}, {"measurement": "Amount of HMF in water phase (g) (final)", "setting": "[2]; [11]", "result": 0.0161, "unit": "g"}, {"measurement": "D = conc. of HMF in DEB/conc. of HMF in water", "setting": "[2]; [11]", "result": 0.54}, {"measurement": "Amount of HMF in DEB phase (g) (final in DEB phase)", "setting": "[2]; [11]", "result": 0.0088, "unit": "g"}]}
{"compound": "CCCCOCCOCCOCCCC", "note": "[DEB, diethylene glycol dibutyl ether]", "values": [{"measurement": "DEB solubility in water", "setting": "[3]", "result": "less than 10 ppm"}]}
{"compound": "CC(=O)O", "note": "[acetic acid]", "values": [{"measurement": "AcOH in DEB", "setting": "[4]; [12]", "result": 0.171, "unit": "grams"}, {"measurement": "AcOH in water (final in DEB)", "setting": "[4]; [12]", "result": 0.163, "unit": "grams"}, {"measurement": "D = AcOH in DEB/AcOH in water", "setting": "[4]; [12]", "result": 1.1}, {"measurement": "AcOH in DEB", "setting": "[4]; [13]", "result": 0.088, "unit": "grams"}, {"measurement": "AcOH in water (final in DEB)", "setting": "[4]; [13]", "result": 0.082, "unit": "grams"}, {"measurement": "D = AcOH in DEB/AcOH in water", "setting": "[4]; [13]", "result": 1.08}, {"measurement": "AcOH in DEB", "setting": "[4]; [14]", "result": 0.033, "unit": "grams"}, {"measurement": "AcOH in water (final in DEB)", "setting": "[4]; [14]", "result": 0.034, "unit": "grams"}, {"measurement": "D = AcOH in DEB/AcOH in water", "setting": "[4]; [14]", "result": 0.98}]}
{"compound": "water", "values": [{"measurement": "Water in DEB", "setting": "[4]; [12]", "result": 300, "unit": "µg"}, {"measurement": "Water in DEB", "setting": "[4]; [13]", "result": 100, "unit": "µg"}, {"measurement": "Water in DEB", "setting": "[4]; [14]", "result": 90, "unit": "µg"}, {"measurement": "water content in the DEB phase", "setting": "[4]; after contact experiment with acetic acid solutions", "result": "less than 300 ppm"}]}
{"compound": "O=Cc1ccco1", "note": "[furfural]", "values": [{"measurement": "Amount of furfural in water phase (g) (final)", "setting": "[2]; [15]", "result": 0.0249, "unit": "g"}, {"measurement": "D = conc. of furfural in DEB/conc. of furfural in water", "setting": "[2]; [15]", "result": 0.98}, {"measurement": "Amount of furfural in DEB phase (g) (final in DEB phase)", "setting": "[2]; [15]", "result": 0.0242, "unit": "g"}, {"measurement": "Amount of furfural in water phase (g) (final)", "setting": "[2]; [16]", "result": 0.0161, "unit": "g"}, {"measurement": "D = conc. of furfural in DEB/conc. of furfural in water", "setting": "[2]; [16]", "result": 0.91}, {"measurement": "Amount of furfural in DEB phase (g) (final in DEB phase)", "setting": "[2]; [16]", "result": 0.0088, "unit": "g"}, {"measurement": "Amount of furfural in water phase (g) (final)", "setting": "[2]; [17]", "result": 0.0069, "unit": "g"}, {"measurement": "D = conc. of furfural in DEB/conc. of furfural in water", "setting": "[2]; [17]", "result": 1.03}, {"measurement": "Amount of furfural in DEB phase (g) (final in DEB phase)", "setting": "[2]; [17]", "result": 0.0071, "unit": "g"}]}
{"compound": "CCO", "note": "[ethanol]", "values": [{"measurement": "Amount of EtOH in water (final)", "setting": "[1]; [18]", "result": 0.51, "unit": "grams"}, {"measurement": "D = conc. of EtOH in DEB/conc. of EtOH in water", "setting": "[1]; [18]", "result": 0.94}, {"measurement": "Amount of EtOH in DEB (final)", "setting": "[1]; [18]", "result": 0.48, "unit": "grams"}, {"measurement": "Amount of EtOH in water (final)", "setting": "[1]; [19]", "result": 0.15, "unit": "grams"}, {"measurement": "D = conc. of EtOH in DEB/conc. of EtOH in water", "setting": "[1]; [19]", "result": 1.06}, {"measurement": "Amount of EtOH in DEB (final)", "setting": "[1]; [19]", "result": 0.16, "unit": "grams"}, {"measurement": "Amount of EtOH in water (final)", "setting": "[1]; [20]", "result": 0.073, "unit": "grams"}, {"measurement": "D = conc. of EtOH in DEB/conc. of EtOH in water", "setting": "[1]; [20]", "result": 1.2}, {"measurement": "Amount of EtOH in DEB (final)", "setting": "[1]; [20]", "result": 0.087, "unit": "grams"}, {"measurement": "Amount of EtOH in water (final)", "setting": "[1]; [21]", "result": 0.052, "unit": "grams"}, {"measurement": "D = conc. of EtOH in DEB/conc. of EtOH in water", "setting": "[1]; [21]", "result": 1.11}, {"measurement": "Amount of EtOH in DEB (final)", "setting": "[1]; [21]", "result": 0.058, "unit": "grams"}, {"measurement": "Amount of EtOH in water (final)", "setting": "[1]; [22]", "result": 0.031, "unit": "grams"}, {"measurement": "D = conc. of EtOH in DEB/conc. of EtOH in water", "setting": "[1]; [22]", "result": 0.93}, {"measurement": "Amount of EtOH in DEB (final)", "setting": "[1]; [22]", "result": 0.029, "unit": "grams"}, {"measurement": "Amount of EtOH in water (final)", "setting": "[1]; [23]", "result": 0.014, "unit": "grams"}, {"measurement": "D = conc. of EtOH in DEB/conc. of EtOH in water", "setting": "[1]; [23]", "result": 1.16}, {"measurement": "Amount of EtOH in DEB (final)", "setting": "[1]; [23]", "result": 0.016, "unit": "grams"}]}
